Tests used:
TGF-beta = assay: Sandwich ELISA for total latent plus active TGF-beta, rat vascular smooth muscle cell conditioned medium; assay type: cell-based
Experimental: The total latent and active TGF-beta present was determined by a sandwich ELISA. Maxisorb 96-well ELISA plates (available from Gibco) were coated with neutralizing antiserum against TGF-beta (BDA19; available from R & D Systems) at 2 micrograms/cm^2 in phosphate buffered saline (PBS) overnight at room temperature. The plates were washed between each step with tris-buffered saline containing 0.1% Triton X-100 (available from Sigma Chemical Company). The plates were incubated with samples for 2 hours, with a second antibody to TGF-beta (BDA5; available from R & D Systems) at 0.1 micrograms/ml for 2 hours, anti-rabbit IgG peroxidase conjugated to antibody (available from Sigma Chemical Co.), made up according to manufacturer's instructions, for 15 minutes. Absorbances at 492 nm were converted into quantities of TGF-beta protein using a standard curve. Both conditioned media and standards were assayed in the presence of 10% FCS in DMEM. This assay was linear for TGF-beta concentrations in the range from 0.1 ng/ml to 20 ng/ml in the presence of 10% FCS in DMEM.

human ED cultures = assay: Proliferation of enzyme-dispersed (ED) human VSMC cultures; assay type: cell-based; details: 96 h, cell counting
Experimental: (§1) Human aortic VSMC cultures. Adult human VSMC were obtained from 6 transplant donors (either sex, age range from 3 to 54 years) using the enzyme dispersal or explant technique. In one case, the same donor (a person) was used to establish both an enzyme-dispersed (ED) and explant-derived (EX) cell culture. Prior to enzyme-dispersion or explanting treatment, human aortas were obtained within 18 h of death. The endothelium layer was removed with a scalpel blade and strips of smooth muscle cells (tunica media) were removed with forceps and chopped into small pieces (1 mm^3).
(§2) ED Cultures. The aortic pieces were washed once with serum-free Hanks Balanced Salt Solution, then enzyme-dispersed with collagenase and elastase, as described in Example 7. The cells were plated at an initial density of 1.5 x 10^5 cells/cm^2 and incubated in a humidified atmosphere at 37°C in 5% CO2 in air. The cells were subcultured every 6-7 days (at stationary phase) by releasing them with trypsin/EDTA and diluting them 1:1.5 in D-MEM + 10% FCS. Subcultured ED cells were cultured with D-MEM + 20% FCS 24 h after plating, and thereafter at 48 h intervals.
(§3) Cell counting, DNA synthesis assays and assays for total and active TGF-beta were performed as described in Example 7.

[1] = as above; assay type: cell-based; details: human, aortic vsmc ed cultures, cell counting, read-out: concentrations that caused cell death
Experimental: as §1, §2, §3

TGF-beta1 mRNA = details: vascular smooth muscle cells, 24 h, 10 µM
[2] = system: mink lung endothelial (MvLu) cells; assay: DNA synthesis of MvLu cells, direct addition of agent; assay type: cell-based; details: 50 micromolar in fresh DMEM + 10% FCS
Experimental: Assays for TGF-Beta. The TGF-beta activity present in medium conditioned on various cells was determined by DNA synthesis assay on mink lung […] (MvLu) cells; a modification of the assay described in Danielpour et al., J. Cell. Physiol., 138: 79-83, 1989. MvLu cells were subcultured at 1:5 dilution in DMEM + 10% FCS. After 24 hours, the medium was replaced with the conditioned medium to be tested in the absence or presence of the neutralizing antiserum to TGF-beta at 10 micrograms/ml. DNA synthesis during a 1 hour pulse of [^3H]-thymidine (5 microcuries/ml) was determined 23 hours after addition of the test medium. TGF-beta activity was calculated as the proportion of the inhibition of DNA synthesis which was reversed in the presence of neutralizing antibody, using a standard curve to convert the inhibition values into quantities of TGF-beta. The TGF-beta1 standards and conditioned media both contained 10% FCS in DMEM.

human EX cultures = assay: Proliferation of explant-derived (EX) human VSMC cultures; assay type: cell-based; details: Homo sapiens, VSMC
Experimental: as §1
(§4) EX Cultures. The aortic pieces were washed once with D-MEM + 10% FCS, resuspended in a small volume of fresh D-MEM + 10% FCS, and transferred to culture flasks or Petri dishes. The pieces were allowed to sediment onto the plastic and were evenly distributed (≈ 4 pieces/cm^2). Cells started to grow out from the explants after 3-7 d in culture. The aortic pieces were removed during the third week in culture, and the cells adhering to the plastic were allowed to grow to confluence for a further week. The cells were then subcultured every 4-5 days by releasing them with trypsin/EDTA and diluting them 1:2 in D-MEM + 10% FCS. Subcultured cells were incubated with fresh D-MEM + 20% FCS as described for ED cultures.
as §3

[3] = as above; assay type: cell-based; details: human, aortic vsmc ex cultures
Experimental: as §1, §4, §3

[4] = system: Rat adventitial fibroblasts; assay: Proliferation of adventitial fibroblasts; assay type: cell-based
Experimental: Rat adventitial fibroblasts were cultured as described in Grainger et al., Biochem. J., 283: 403-408, 1992. Briefly, the aortae were treated with collagenase (3 mg/ml) for 30 minutes at 37°C. The tunica adventitia was stripped away from the media. The adventitia was dispersed for 2 hours in elastase (1 mg/ml) and collagenase (3 mg/ml) dissolved in medium M199 (available from ICN/Flow). The cells were then spun out (900 x g, 3 minutes), resuspended in DMEM + 10% FCS and plated out at 8 x 10^4 cells/cm^2 on tissue culture plastic. When the cells reached confluence (after about 10 days), they were subcultured as described for vascular smooth muscle cells. Adventitial fibroblasts were subcultured every 3 days at 1:3 dilution and used between passages 3 and 9.
Cells were prepared for counting by hemocytometer from triplicate culture dishes as described in Grainger et al., Biochem. J., 277:145-151, 1991. Cells were also counted by direct microscopic observation of gridded culture dishes. The grids were scored into the plastic on the inner surface, so that the cells could not migrate into or out of the area being counted during the experiment. Cells in each of four squares in two separate wells were counted at each time point. All cell counting experiments were repeated on at least three separate cultures.

[5] = system: B054 cells (baboon smooth muscle cells); assay: cells; assay type: cell-based
[6] = system: B054 cells (baboon smooth muscle cells); assay: cells; assay type: cell-based; remark: listed apart in the source
[7] = system: Balloon traumatized pig arteries; details: in vivo
[8] = system: vascular smooth muscle cells; assay type: in vivo, pig; details: 4 days post-trauma

| Compound | proportion of the TGF-beta present in active form (TGF-beta; 50 micromolar, 96 hours, vehicle < 5%) | fold induction at 50 µM (TGF-beta; Rattus norvegicus, 96 h, read-out: increase of total TGF-beta protein present) | concentrations that did not affect the rate of proliferation (human ED cultures) | MCC at 96 h [1] [µM] | increase of TGF-beta1 mRNA (TGF-beta1 mRNA) | effect on DNA synthesis of MvLu cells [2] | inhibition at 0.5 µM (human EX cultures; 0.5 µM, 96 h in D-MEM + 20% FCS, vs ethanol vehicle, read-out: inhibition of the increase in cell number) [%] | inhibition at 5 µM (human EX cultures; 5 µM, read-out: inhibition of the increase in cell number) [%] | IC50 (human EX cultures; read-out: half-maximal inhibitory dose) [nM] | MCC [3] [µM] | rate of proliferation of subcultured adventitial fibroblasts ([4]; concentrations of up to 50 micromolar) | ED50 lower for vascular smooth muscle cells than for adventitial fibroblasts ([4]; selectivity, vascular smooth muscle cells vs adventitial fibroblasts) | minimum effective dose (MED), protein synthesis assay ([5]; 5 minute exposure) [µg/mL] | minimum effective dose (MED), protein synthesis assay ([5]; 24 hour exposure) [µg/mL] | minimum effective dose (MED), DNA assay ([6]; 5 minute exposure) [µg/mL] | minimum effective dose (MED), DNA synthesis assay ([6]; 24 hour exposure) [µg/mL] | lumen area in the test region compared to the normal control segment of the same artery [7] | luminal area compared to arteries treated with other test agents or controls [7] | toxicity to the vascular smooth muscle cells [7] | BRDU labeling grade [8] |
| --- | --- | --- | --- | --- | --- | --- | --- | --- | --- | --- | --- | --- | --- | --- | --- | --- | --- | --- | --- | --- |
| CC/C(=C(\c1ccccc1)c1ccc(OCCN(C)C)cc1)c1ccccc1 [tamoxifen, trans-2-[4-(1,2-diphenyl-1-butenyl)phenoxy]-N,N-dimethylethylamine] | approximately 35% | ~4 | below 10 µM | > 33 | approximately 10 fold | no effect on DNA synthesis | 27 ± 2 | 33 ± 8 | 30 to 100 | > 33 | did not reduce the rate of proliferation | at least 10 fold | – | – | – | – | – | – | – | – |
| cytochalasin B | – | – | – | – | – | – | – | – | – | – | – | – | 10 | 1.0 | 10 | 0.1 | approximately two times | larger luminal area | appeared to be toxic | 4 (4 = > 10/HPF) |
